# Measurements: patent US20240238423A9, “TETRAHYDROISOQUINOLINE HETEROBIFUNCTIONAL BCL-XL DEGRADERS” (Treeline Biosciences, Inc., priority 2022, published 2024)
# Where two headings read alike, the source gives them in different places.
# Biological target: T1, Human BCL-XL protein (N-terminal HiBiT tagged BCL-XL in HT1080 cells) (Homo sapiens, UniProt Q07817)
# T1 construct: expressed in transfected cells; host or cells: HT-1080 (ATCC CCL-121), stably transduced with lentivirus pLV-UBC-N-HiBiT-BCL-XL-PGK-puro and selected with puromycin
# Assay: HiBiT based degradation assay
# Type: cell-based
# Conditions: HT1080 cells expressing HiBiT-BCL-XL; for Ymin (24 h) / Ymin (6 h): BCL-XL degradation normalized with DMSO control; for DC50: BCL-XL degradation
# Procedure, shortened: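 HT1080 cells stably transduced by lentivirus with N-terminally HiBiT-tagged human BCL-XL and kept under 1 μg/mL puromycin selection were seeded at three thousand cells per well in 40 μL RPMI 1640 into 384-well plates pre-spotted with compounds across a concentration range. Luminescence was read on a PHERAstar FSX, normalized to DMSO, and fitted with a four-parameter logistic model.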
# T1 sequence (Q07817 whole entry): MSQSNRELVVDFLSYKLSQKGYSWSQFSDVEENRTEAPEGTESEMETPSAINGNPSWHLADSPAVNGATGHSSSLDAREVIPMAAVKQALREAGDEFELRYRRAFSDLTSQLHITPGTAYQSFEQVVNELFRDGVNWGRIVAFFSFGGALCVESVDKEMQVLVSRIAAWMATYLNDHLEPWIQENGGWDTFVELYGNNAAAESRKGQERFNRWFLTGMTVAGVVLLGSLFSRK
SMILES,Ymin (24 h),"DC50 (24 h, read-out: EC50 (24 h))",Ymin (6 h),"DC50 (6 h, read-out: EC50 (6 h))"
"Cc1c(OCCC[C@@H]2CCN(CC(=O)Nc3cccc4c(C5CCC(=O)NC5=O)nn(C)c34)CC2(F)F)cccc1-c1ccc(N2CCc3cccc(C(=O)Nc4nc5ccccc5s4)c3C2)nc1C(=O)O (stereo partly drawn) [Compound 197b, 6-(8-(benzo[d]thiazol-2-ylcarbamoyl)-3,4-dihydroisoquinolin-2(1H)-yl)-3-(3-(3-((4R)-1-(2-((3-(2,6-dioxopiperidin-3-yl)-1-methyl-1H-indazol-7-yl)amino)-2-oxoethyl)-3,3-difluoropiperidin-4-yl)propoxy)-2-methylphenyl)picolinic acid]",B (50% ≤ Ymin < 70%),0.1 to 1 µM,,
"Cc1c(OCCC2CC3(C2)CN(CC(=O)Nc2ccc4c(C5CCC(=O)NC5=O)nn(C)c4c2)C3)cccc1-c1ccc(N2CCc3cccc(C(=O)Nc4nc5ccccc5s4)c3C2)nc1C(=O)O (stereo not shown) [Compound 277, 6-(8-(benzo[d]thiazol-2-ylcarbamoyl)-3,4-dihydroisoquinolin-2(1H)-yl)-3-(3-(2-(2-(2-((3-(2,6-dioxopiperidin-3-yl)-1-methyl-1H-indazol-6-yl)amino)-2-oxoethyl)-2-azaspiro[3.3]heptan-6-yl)ethoxy)-2-methylphenyl)picolinic acid]",A (Ymin < 50%),< 0.1 µM,,
"Cc1c(O[C@H]2CC[C@H](CCC(C)(C)N3CCN(c4cccc5c(C6CCC(=O)NC6=O)nn(C)c45)CC3)CC2)cccc1-c1ccc(N2CCc3cccc(C(=O)Nc4nc5ccccc5s4)c3C2)nc1C(=O)O (stereo partly shown) [Compound 341a, 6-(8-(benzo[d]thiazol-2-ylcarbamoyl)-3,4-dihydroisoquinolin-2(1H)-yl)-3-(3-(((is, 4r)-4-(3-(4-(3-(2,6-dioxopiperidin-3-yl)-1-methyl-1H-indazol-7-yl)piperazin-1-yl)-3-methylbutyl)cyclohexyl)oxy)-2-methylphenyl)picolinic acid]",A (Ymin < 50%),< 0.1 µM,,
"Cc1c(O[C@H]2CC[C@H](CCCCN3CCC[C@H](c4cccc5c(C6CCC(=O)NC6=O)nn(C)c45)C3)CC2)cccc1-c1ccc(N2CCc3cccc(C(=O)Nc4nc5ccccc5s4)c3C2)nc1C(=O)O (single isomer, unassigned) [Compound 351a]",A (Ymin < 50%),< 0.1 µM,,
"Cc1c(OCCN2C[C@@H](C)N(CC(=O)Nc3ccc4c(C5CCC(=O)NC5=O)nn(C)c4c3)[C@@H](C)C2)cccc1-c1ccc(N2CCc3cccc(C(=O)Nc4nc5ccccc5s4)c3C2)nc1C(=O)O (stereo partly drawn) [Compound 159a, 6-(8-(benzo[d]thiazol-2-ylcarbamoyl)-3,4-dihydroisoquinolin-2(1H)-yl)-3-(3-(2-((3R,5S)-4-(2-((3-(2,6-dioxopiperidin-3-yl)-1-methyl-1H-indazol-6-yl)amino)-2-oxoethyl)-3,5-dimethylpiperazin-1-yl)ethoxy)-2-methylphenyl)picolinic acid]",,,B (50% ≤ Ymin < 70%),< 0.1 µM
"Cn1nc(C2CCC(=O)NC2=O)c2ccc(NC(=O)CN3CCC(CCCOc4cccc(-c5ccc(N6CCc7cccc(C(=O)Nc8nc9ccccc9s8)c7C6)nc5C(=O)O)c4)CC3)cc21 (stereo not shown) [Compound 314, 6-(8-(benzo[d]thiazol-2-ylcarbamoyl)-3,4-dihydroisoquinolin-2(1H)-yl)-3-(3-(3-(1-(2-((3-(2,6-dioxopiperidin-3-yl)-1-methyl-1H-indazol-6-yl)amino)-2-oxoethyl)piperidin-4-yl)propoxy)phenyl)picolinic acid]",B (50% ≤ Ymin < 70%),< 0.1 µM,,
"Cc1c(O[C@H]2CC[C@H](CCCN3CCN(c4ccc5c(C6CCC(=O)NC6=O)nn(C)c5c4)CC3)CC2)cccc1-c1ccc(N2CCc3cccc(C(=O)Nc4nc5ccccc5s4)c3C2)nc1C(=O)O (stereo partly shown) [Compound 148a, 6-(8-(benzo[d]thiazol-2-ylcarbamoyl)-3,4-dihydroisoquinolin-2(1H)-yl)-3-(3-(((1s,4r)-4-(3-(4-(3-(2,6-dioxopiperidin-3-yl)-1-methyl-1H-indazol-6-yl)piperazin-1-yl)propyl)cyclohexyl)oxy)-2-methylphenyl)picolinic acid]",A (Ymin < 50%),< 0.1 µM,B (50% ≤ Ymin < 70%),< 0.1 µM
"Cc1c(O[C@H]2CC[C@H](C[C@H](C)CN3CCN(c4ccc5c(C6CCC(=O)NC6=O)nn(C)c5c4)CC3)CC2)cccc1-c1ccc(N2CCc3cccc(C(=O)Nc4nc5ccccc5s4)c3C2)nc1C(=O)O (single isomer, unassigned) [Compound 282b, 6-(8-(benzo[d]thiazol-2-ylcarbamoyl)-3,4-dihydroisoquinolin-2(1H)-yl)-3-(3-(((1S,4r)-4-((2S*)-3-(4-(3-(2,6-dioxopiperidin-3-yl)-1-methyl-1H-indazol-6-yl)piperazin-1-yl)-2-methylpropyl)cyclohexyl)oxy)-2-methylphenyl)picolinic acid]",A (Ymin < 50%),< 0.1 µM,,
"Cc1cc(OCCCN2CCN(CC(=O)Nc3cccc4c(C5CCC(=O)NC5=O)nn(C)c34)CC2)ccc1-c1ccc(N2CCc3cccc(C(=O)Nc4nc5ccccc5s4)c3C2)nc1C(=O)O (stereo not shown) [Compound 242, 6-[8-(1,3-benzothiazol-2-ylcarbamoyl)-3,4-dihydro-1H-isoquinolin-2-yl]-3-[4-[3-[4-[2-[[3-(2,6-dioxo-3-piperidyl)-1-methyl-indazol-7-yl]amino]-2-oxo-ethyl]piperazin-1-yl]propoxy]-2-methyl-phenyl]pyridine-2-carboxylic acid]",C (Ymin ≥ 70%),< 0.1 µM,C (Ymin ≥ 70%),1 to 10 µM

# The next lines start with the values.
Ymin (24 h),"DC50 (24 h, read-out: EC50 (24 h))",Ymin (6 h),"DC50 (6 h, read-out: EC50 (6 h))",SMILES
A (Ymin < 50%),< 0.1 µM,,,"Cc1c(OC[C@H]2CCC3(CCN(CC(=O)Nc4ccc5c(C6CCC(=O)NC6=O)nn(C)c5c4)CC3)C2)cccc1-c1ccc(N2CCc3cccc(C(=O)Nc4nc5ccccc5s4)c3C2)nc1C(=O)O (single isomer, unassigned) [Compound 262a]"
A (Ymin < 50%),< 0.1 µM,B (50% ≤ Ymin < 70%),< 0.1 µM,"Cc1c(OCCCCCCCCCN2CCN(c3ccc4c(C5CCC(=O)NC5=O)nn(C)c4c3)CC2)cccc1-c1ccc(N2CCc3cccc(C(=O)Nc4nc5ccccc5s4)c3C2)nc1C(=O)O (stereo not shown) [Compound 155, 6-[8-(1,3-benzothiazol-2-ylcarbamoyl)-3,4-dihydro-1H-isoquinolin-2-yl]-3-[3-[9-[4-[3-(2,6-dioxo-3-piperidyl)-1-methyl-indazol-6-yl]piperazin-1-yl]nonoxy]-2-methyl-phenyl]pyridine-2-carboxylic acid]"
A (Ymin < 50%),< 0.1 µM,,,"Cc1c(OCCCC2CCN(CC3CN(c4ccc5c(C6CCC(=O)NC6=O)nn(C)c5c4)C3)CC2)cccc1-c1ccc(N2CCc3cccc(C(=O)Nc4nc5ccccc5s4)c3C2)nc1C(=O)O (stereo not shown) [Compound 312, 6-(8-(benzo[d]thiazol-2-ylcarbamoyl)-3,4-dihydroisoquinolin-2(1H)-yl)-3-(3-(3-(1-((1-(3-(2,6-dioxopiperidin-3-yl)-1-methyl-1H-indazol-6-yl)azetidin-3-yl)methyl)piperidin-4-yl)propoxy)-2-methylphenyl)picolinic acid]"
A (Ymin < 50%),< 0.1 µM,A (Ymin < 50%),< 0.1 µM,"Cc1cc(OCCCC2CCN(CC(=O)Nc3ccc4c(C5CCC(=O)NC5=O)nn(C)c4c3)CC2)ccc1-c1ccc(N2CCc3cccc(C(=O)Nc4nc5ccccc5s4)c3C2)nc1C(=O)O (stereo not shown) [Compound 184, 6-[8-(1,3-benzothiazol-2-ylcarbamoyl)-3,4-dihydro-1H-isoquinolin-2-yl]-3-[4-[3-[1-[2-[[3-(2,6-dioxo-3-piperidyl)-1-methyl-indazol-6-yl]amino]-2-oxo-ethyl]-4-piperidyl]propoxy]-2-methyl-phenyl]pyridine-2-carboxylic acid]"
A (Ymin < 50%),< 0.1 µM,,,"Cc1c(OCCC[C@@H]2CCCN(CC(=O)Nc3ccc4c(C5CCC(=O)NC5=O)nn(C)c4c3)C2)cccc1-c1ccc(N2CCc3cccc(C(=O)Nc4nc5ccccc5s4)c3C2)nc1C(=O)O (stereo partly drawn) [Compound 207a, 6-(8-(benzo[d]thiazol-2-ylcarbamoyl)-3,4-dihydroisoquinolin-2(1H)-yl)-3-(3-(3-((3S)-1-(2-((3-(2,6-dioxopiperidin-3-yl)-1-methyl-1H-indazol-6-yl)amino)-2-oxoethyl)piperidin-3-yl)propoxy)-2-methylphenyl) picolinic acid]"
A (Ymin < 50%),< 0.1 µM,A (Ymin < 50%),< 0.1 µM,"Cc1cc(OCCCN2CCN(CC(=O)N3CCN(c4ccc5c(C6CCC(=O)NC6=O)nn(C)c5c4)CC3)CC2)ccc1-c1ccc(N2CCc3cccc(C(=O)Nc4nc5ccccc5s4)c3C2)nc1C(=O)O (stereo not shown) [Compound 153, 6-(8-(Benzo[d]thiazol-2-ylcarbamoyl)-3,4-dihydroisoquinolin-2(1H)-yl)-3-(4-(3-(4-(2-(4-(3-(2,6-dioxopiperidin-3-yl)-1-methyl-1H-indazol-6-yl)piperazin-1-yl)-2-oxoethyl)piperazin-1-yl)propoxy)-2-methylphenyl)picolinic acid]"
